Experimental data from patent publication US4362727A, “5-Substituted 9-cyanomethylene-dithieno[3,4-b:4,3-e]-azepines and therapeutic agents which contain these compounds” (priority 1981, dated 1982).

Tests used:
[1] = tested on: orientation hypermotility; assay: Sedative action (orientation hypermotility); type: in vivo, female NMRI mice; conditions: mice, oral; clozapine = 1.0
Description: 4-8 groups each of 3 female NMRI mice are given the compound orally. The orientation hypermotility induced by a new environment is determined photoelectrically, for a period of 30 minutes, starting 30 minutes after administration of the substances.

[2] = tested on: tonic extension reflex in the gastrocnemius; assay: Muscle-relaxing action (tonic extension reflex); type: in vivo, rabbits; conditions: rabbit, intravenous; for Muscle relaxation R.E.: clozapine = 1.0
Description: 2. […] The rabbit is kept in a special apparatus which allows it to flex its paw at the talocalcanean joint in a defined and reproducible manner. The flexing triggers off a tonic extension reflex in the calf muscles. The electrical activity of the muscle during the contraction is recorded, and the individual pulses are counted. The extension (lasting 5 seconds) is repeated at intervals of one minute. […] The numbers of pulses following the administration are compared with the initial values.

[3] = tested on: pilocarpine-induced scratching movements; assay: Anticholinergic action on the central nervous system (pilocarpine); type: in vivo; conditions: rats, intraperitoneal; clozapine = 1.0
Description: 4. Anticholinergic action on the central nervous system
To test the anticholinergic action on the central nervous system, cholinergic stimulation is triggered off by pilocarpine. After rapid intravenous injection of pilocarpine.HCl (50 mg/kg) rats display alternating scratching movements of their rear paws; further symptoms triggered off in the central nervous system are jaw movements and tremors. […] The test substances are administered intraperitoneally 30 minutes before pilocarpine. The substance is considered to have an effect if no scratching is observed for a period of 2 minutes after the injection of pilocarpine. For this symptom, the mean inhibition dose (ED50%) is determined, by means of probit analysis by the method of Finney, as the dose of the test substance which suppresses the scratching in half the animals.

[4] = tested on: methamphetamine-induced sniffing movements; assay: Antimethamphetamine action (methamphetamine antagonism); type: in vivo; conditions: rats, intraperitoneal; clozapine = 1.0
Description: 3. Antimethamphetamine action
Methamphetamine.HCl (2.5 mg/kg administered intravenously) regularly causes the following symptoms in rats: motor restlessness, searching and sniffing movements, fur standing on end, and tremor (Janssen et al., Arzneim.-Forsch./Drug Res. 13 (1963), 205; and Randrup et al., Psychopharmacologia 11 (1967), 300). The test substances are administered intraperitoneally 30 minutes before methamphetamine. The substance is considered to have an effect if no sniffing movements are observed for a period of 5 minutes after the injection of methamphetamine. The mean inhibition dose (ED50%) is determined, by means of probit analysis, as the dose which prevents the occurrence of the symptom in half the animals.

| SMILES | Sedation R.E. [1] | Muscle relaxation R.E. [2] | Anticholinergic action on the central nervous system R.E. [3] | ED50 ([2]; Oryctolagus cuniculus, pulses compared with initial values, read-out: Muscle relaxation ED 50%) | Methamphetamine antagonism R.E. [4] |
| --- | --- | --- | --- | --- | --- |
| CN1CCN(C2=Nc3cscc3C(=CC#N)c3cscc32)CC1 [Example 1a, 9-cyanomethylene-5-(4-methyl-piperazin-1-yl)-dithieno[3,4-b:4',3'-e]azepine] | 0.64 | 0.33 | 1.1 |  |  |
| CN1CCN(C2=Nc3cc(Cl)ccc3Nc3ccccc32)CC1 [Clozapine] | 1.0 | 1.0 | 1.0 | 0.046 mg/kg | 1.0 |
| CN1CCN(C2=Nc3c(csc3Cl)C(=CC#N)c3cscc32)CC1 (mixture of isomers) [Example 2, Cis/trans-3-chloro-9-cyanomethylene-5-(4-methylpiperazin-1-yl)-dithieno[3,4-b:4',3'-e]azepine] | 0.49 | 0.56 |  |  |  |
| CN1CCN(C2=Nc3ccccc3Cc3ccccc32)CC1 [Perlapine] |  | 0.42 | 0.22 |  | 1.2 |
| CCN1CCN(C2=Nc3cscc3C(=CC#N)c3cscc32)CC1 (mixture of isomers) [Example 6, Cis/trans-9-cyanomethylene-5-(4-ethyl-piperazin-1-yl)dithieno[3,4-b:4',3'-e]azepine] | 0.44 | 0.21 |  |  | 0.88 |
